Columns and labels:
[1] = 298.15 K; 101 kPa; Liquid; Vibrating tube method
[2] = refractive index (Na D-line) (dimensionless); conditions: 298.15 K; 101.33 kPa; Liquid; refractometer
[3] = refractive index (Na D-line) (dimensionless); xn = mol fraction of the nth substance listed; conditions: 298.15 K, 101 kPa, Liquid, refractometer
[4] = xn = mol fraction of the nth substance listed; conditions: 298.15 K, 101 kPa, Liquid, Vibrating tube method

CC(C)CC(C)(C)C [2,2,4-trimethylpentane]
Conditions | mass density [kg/m3] | refractive index
[1] | 688.18 | –
[2] | – | 1.38898

CC(C)CC(C)(C)C [2,2,4-trimethylpentane] + COC(=O)OC
x2 = 0
Conditions | mass density [kg/m3] | refractive index
[3] | – | 1.38898
[4] | 688.18 | –

COC(=O)OC [dimethyl carbonate]
Conditions | mass density [kg/m3] | refractive index
[1] | 1063.04 | –
[2] | – | 1.36654

COC(=O)OC [dimethyl carbonate] + CC(C)CC(C)(C)C
Conditions | mass density, [4] [kg/m3] | refractive index, [3]
x1 = 0.0508 | 697.25 | 1.38814
x1 = 0.1017 | 706.78 | 1.38716
x1 = 0.1995 | 727.06 | 1.38504
x1 = 0.3007 | 751.06 | 1.38275
x1 = 0.4002 | 778.05 | 1.38062
x1 = 0.5002 | 809.37 | 1.37889
x1 = 0.5996 | 845.17 | 1.37642
x1 = 0.7005 | 887.53 | 1.37408
x1 = 0.8002 | 936.46 | 1.37109
x1 = 0.9011 | 994.92 | 1.36879
x1 = 0.9504 | 1027.38 | 1.36722
x1 = 1 | 1063.04 | 1.36654

COC(=O)OC [dimethyl carbonate] + CCO
Conditions | mass density, [4] [kg/m3] | refractive index, [3]
x1 = 0.051 | 805.05 | 1.36039
x1 = 0.1 | 823.15 | 1.3606
x1 = 0.1999 | 857.92 | 1.36122
x1 = 0.2998 | 889.9 | 1.36186
x1 = 0.4005 | 919.86 | 1.36241
x1 = 0.5008 | 947.72 | 1.36301
x1 = 0.6011 | 973.66 | 1.36375
x1 = 0.6993 | 997.55 | 1.36439
x1 = 0.8002 | 1020.67 | 1.36504
x1 = 0.9008 | 1042.49 | 1.36576
x1 = 0.9514 | 1053.11 | 1.36614
x1 = 1 | 1063.04 | 1.36654

CCO [ethanol]
Conditions | mass density [kg/m3] | refractive index
[1] | 785.33 | –
[2] | – | 1.35933

CCO [ethanol] + COC(=O)OC
x2 = 0
Conditions | mass density [kg/m3] | refractive index
[3] | – | 1.35933
[4] | 785.33 | –

From the NIST ThermoML archive (doi:10.1016/j.fluid.2008.11.001)
